Laboratory results from ChEMBL document CHEMBL1201862, “PubChem BioAssay data set” (2004).
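Values below derive from 48-hour exposures of cells grown in 96-well plates, with endpoints linearly interpolated between the two concentrations bracketing the appropriate inhibition level. At the GI50, growth is halved.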 Activity calls are given as the source filed them. Rule as the data show it: active = GI50 up to about 1.1 µM and inactive = higher.

Tests used:
Experiment in all cases: growth of human tumour cells (NCI), 48 h
[1] = system: MDA-MB-435
[2] = system: BT-549
[3] = system: SK-MEL-5
[4] = system: 786-0
[5] = system: SN12C
[6] = system: HCT-116
[7] = system: SK-MEL-2
[8] = system: OVCAR-5
[9] = system: M14
[10] = system: UACC-62
[11] = system: OVCAR-8
[12] = system: DU-145
[13] = system: TK-10
[14] = system: SW-620
[15] = system: HCT-15
[16] = system: T47D
[17] = system: SF-268
[18] = system: MCF7
[19] = system: RXF 393
[20] = system: SNB-19
[21] = system: PC-3
[22] = system: OVCAR-4
[23] = system: CCRF-CEM
[24] = system: IGROV-1
[25] = system: NCI/ADR-RES
[26] = system: HOP-62
[27] = system: NCI-H460
[28] = system: MOLT-4
[29] = system: SK-MEL-28
[30] = system: A498
[31] = system: ACHN
[32] = system: COLO 205
[33] = system: A549
[34] = system: Hs-578T
[35] = system: UO-31
[36] = system: SK-OV-3
[37] = system: SNB-75
[38] = system: MDA-N
[39] = system: OVCAR-3
[40] = system: KM12
[41] = system: HOP-92
[42] = system: HT-29
[43] = system: NCI-H23
[44] = system: SF-295
[45] = system: CAKI-1
[46] = system: LOX IMVI
[47] = system: MDA-MB-231
[48] = system: UACC-257
[49] = system: HL-60
[50] = system: Malme-3M
[51] = system: K562
[52] = system: SF-539
[53] = system: NCI-H522
[54] = system: U-251
[55] = system: RPMI-8226
[56] = system: NCI-H226
[57] = system: EKVX
[58] = system: HCC 2998

Measured: GI50

CCOC(=O)c1nc2ccc(C(F)(F)F)cc2nc1Nc1ccc(F)cc1
> 100 µM: [15]
inactive: [1] > 100 µM | [2] > 100 µM | [3] > 10 µM | [4] 45.3 µM | [5] > 100 µM | [6] > 100 µM | [7] > 100 µM | [8] > 100 µM | [9] > 100 µM | [10] > 100 µM | [11] 47.6 µM | [12] > 100 µM | [13] 92.3 µM | [14] > 100 µM | [16] > 100 µM | [17] 52.1 µM | [18] > 100 µM | [19] 38.5 µM | [20] 43.9 µM | [21] > 100 µM | [22] > 100 µM | [23] > 10 µM | [24] 87.7 µM | [25] > 100 µM | [26] 58.9 µM | [27] 28.9 µM | [28] > 100 µM | [29] > 100 µM | [30] > 100 µM | [31] > 100 µM | [32] > 100 µM | [33] 28.8 µM | [34] 21.9 µM | [35] 49.5 µM | [36] > 100 µM | [37] 32.1 µM | [38] > 100 µM | [39] > 100 µM | [40] > 100 µM | [41] 19 µM | [42] > 100 µM | [43] 40.3 µM | [44] 49.2 µM | [45] > 100 µM | [46] > 100 µM | [47] > 10 µM | [48] > 100 µM | [49] > 100 µM | [50] > 100 µM | [51] > 100 µM | [52] 57.5 µM | [53] 54.6 µM

O=C(O)c1nn[nH]c1Cl
inactive: [1] > 100 µM | [2] > 100 µM | [3] > 100 µM | [4] > 100 µM | [5] > 100 µM | [6] > 100 µM | [7] > 100 µM | [8] > 100 µM | [54] > 100 µM | [9] > 100 µM | [10] > 100 µM | [11] > 100 µM | [12] > 100 µM | [13] > 100 µM | [14] > 100 µM | [16] > 100 µM | [17] > 100 µM | [18] > 100 µM | [19] > 100 µM | [21] > 100 µM | [22] > 100 µM | [23] > 100 µM | [24] > 100 µM | [25] > 100 µM | [26] > 100 µM | [55] > 100 µM | [27] > 100 µM | [56] > 100 µM | [28] > 10 µM | [29] > 100 µM | [30] > 100 µM | [31] > 100 µM | [32] > 100 µM | [33] > 100 µM | [34] > 100 µM | [57] > 100 µM | [35] > 100 µM | [36] > 100 µM | [37] > 100 µM | [38] > 100 µM | [39] > 100 µM | [58] > 100 µM | [40] > 100 µM | [42] > 100 µM | [43] > 100 µM | [44] > 100 µM | [46] > 100 µM | [47] > 100 µM | [48] > 100 µM | [49] > 100 µM | [50] > 100 µM | [51] > 100 µM | [52] > 100 µM | [53] > 100 µM
> 100 µM: [15]
